Assay results as given in BindingDB's records for patent US20250353864 (Blossomhill Therapeutics, 2025).

Legend:
[1] = molecular target: Epidermal growth factor receptor (Homo sapiens, UniProt P00533); experiment: Biochemical Assays for Inhibition of Wild-Type and Mutant EGFRs
Experimental: (§1) Briefly, specific kinase/substrate pairs along with required cofactors were prepared in reaction buffer; 20 mM Hepes pH 7.5, 10 mM […], 1 mM EGTA, 0.02% Brij35, 0.02 mg/ml BSA, 0.1 mM Na3VO4, 2 mM DTT, 1% DMSO. Compounds were delivered into the reaction, followed […] later by addition of a mixture of ATP (Sigma, St. Louis MO) and 33P ATP (Perkin Elmer, Waltham MA) to a final concentration of 10 μM. Reactions were carried out at room temperature for 120 min, followed by spotting of the reactions onto P81 ion exchange filter paper (Whatman Inc., Piscataway, NJ). Unbound phosphate was removed by extensive washing of filters in 0.75% phosphoric acid. […] IC50 values and curve fits were obtained using Prism (GraphPad Software).

[2] = molecular target: Epidermal growth factor receptor [L858R,T790M,C797S] (Homo sapiens, UniProt P00533, C797S/L858R/T790M); experiment: as above
Experimental: as §1

[3] = molecular target: Epidermal growth factor receptor [L858R] (Homo sapiens, UniProt P00533, L858R); experiment: as above
Experimental: as §1

[4] = molecular target: Epidermal growth factor receptor [T790M,L858R] (Homo sapiens, UniProt P00533, L858R/T790M); experiment: as above
Experimental: as §1

[5] = molecular target: Dual specificity protein kinase CLK1 (Homo sapiens, UniProt P49759); experiment: Inhibition of CLK, CLK2, CLK3 and CLK4 Kinase Activity Evaluated at Nanosyn
Experimental: (§2) Table 3: Kinase protein and substrate were pre-diluted in the HEPES assay buffer (100 mM HEPES, pH 7.5, 0.01% Triton X-100, 0.1% BSA, 5 mM MgCl2, […] DTT, […], […] Beta-Glycerophosphate) dispensed into 384 well plate (5 μL per well). Control samples (0%-inhibition in the absence of inhibitor, DMSO only) and 100%-inhibition (in the absence of enzyme) were assembled in replicates of six and were used to calculate %-inhibition in the presence of compounds. Test compounds were added to the protein samples by acoustic dispensing (Labcyte Echo550). Concentration of DMSO was equalized to 1% in all samples. Reactions were initiated by addition of ATP by acoustic dispensing (Labcyte Echo550) and incubated according to assay specific incubation time. After incubation. 5 μL of Promega ADP-Glo reagent was added and incubated for 40 minutes. After 40 minutes, 10 uL of Promega kinase detection reagent was added. After 10 min of incubation with Kinase detection reagent, the luminescence was read on microplate reader (Biotek Synergy).

[6] = molecular target: Dual specificity protein kinase CLK2 (Homo sapiens, UniProt P49760); experiment: as above
Experimental: as §2

[7] = molecular target: Dual specificity protein kinase CLK3 (Homo sapiens, UniProt P49761); experiment: as above
Experimental: as §2

[8] = molecular target: Dual specificity protein kinase CLK4 (Homo sapiens, UniProt Q9HAZ1); experiment: as above
Experimental: as §2

Sequence of Epidermal growth factor receptor (P00533 whole entry): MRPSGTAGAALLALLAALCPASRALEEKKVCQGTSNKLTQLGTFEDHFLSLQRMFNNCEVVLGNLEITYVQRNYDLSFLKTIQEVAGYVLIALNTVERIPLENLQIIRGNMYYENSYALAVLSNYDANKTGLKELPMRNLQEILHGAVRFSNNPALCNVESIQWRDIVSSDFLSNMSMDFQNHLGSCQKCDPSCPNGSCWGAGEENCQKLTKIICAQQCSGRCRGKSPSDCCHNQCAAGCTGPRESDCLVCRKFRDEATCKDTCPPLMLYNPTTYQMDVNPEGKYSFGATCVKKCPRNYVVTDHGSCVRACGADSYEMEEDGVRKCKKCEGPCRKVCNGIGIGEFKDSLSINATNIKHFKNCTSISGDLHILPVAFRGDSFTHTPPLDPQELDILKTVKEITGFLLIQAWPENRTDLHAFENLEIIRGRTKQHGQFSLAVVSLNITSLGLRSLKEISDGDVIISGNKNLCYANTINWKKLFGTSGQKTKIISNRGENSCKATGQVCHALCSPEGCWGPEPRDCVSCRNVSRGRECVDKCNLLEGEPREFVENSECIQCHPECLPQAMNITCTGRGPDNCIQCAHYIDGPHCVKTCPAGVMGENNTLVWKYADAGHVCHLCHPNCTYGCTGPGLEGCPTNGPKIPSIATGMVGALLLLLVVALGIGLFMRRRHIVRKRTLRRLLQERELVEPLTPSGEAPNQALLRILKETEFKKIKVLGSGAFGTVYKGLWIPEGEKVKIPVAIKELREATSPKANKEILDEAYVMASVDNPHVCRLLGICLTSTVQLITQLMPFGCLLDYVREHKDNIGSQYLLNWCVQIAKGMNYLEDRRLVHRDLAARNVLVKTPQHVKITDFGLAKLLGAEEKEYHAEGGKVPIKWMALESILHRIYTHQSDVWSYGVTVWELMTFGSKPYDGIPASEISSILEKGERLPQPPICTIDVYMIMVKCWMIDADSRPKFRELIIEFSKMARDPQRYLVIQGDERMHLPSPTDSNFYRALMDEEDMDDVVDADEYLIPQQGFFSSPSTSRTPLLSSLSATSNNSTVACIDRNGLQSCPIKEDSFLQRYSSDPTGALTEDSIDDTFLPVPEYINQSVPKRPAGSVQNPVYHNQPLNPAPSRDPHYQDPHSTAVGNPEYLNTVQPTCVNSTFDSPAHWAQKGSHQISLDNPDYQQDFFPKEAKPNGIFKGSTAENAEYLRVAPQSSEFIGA
Sequence of Epidermal growth factor receptor [L858R,T790M,C797S] (P00533 25-1210 T790M/C797S/L858R limits assumed): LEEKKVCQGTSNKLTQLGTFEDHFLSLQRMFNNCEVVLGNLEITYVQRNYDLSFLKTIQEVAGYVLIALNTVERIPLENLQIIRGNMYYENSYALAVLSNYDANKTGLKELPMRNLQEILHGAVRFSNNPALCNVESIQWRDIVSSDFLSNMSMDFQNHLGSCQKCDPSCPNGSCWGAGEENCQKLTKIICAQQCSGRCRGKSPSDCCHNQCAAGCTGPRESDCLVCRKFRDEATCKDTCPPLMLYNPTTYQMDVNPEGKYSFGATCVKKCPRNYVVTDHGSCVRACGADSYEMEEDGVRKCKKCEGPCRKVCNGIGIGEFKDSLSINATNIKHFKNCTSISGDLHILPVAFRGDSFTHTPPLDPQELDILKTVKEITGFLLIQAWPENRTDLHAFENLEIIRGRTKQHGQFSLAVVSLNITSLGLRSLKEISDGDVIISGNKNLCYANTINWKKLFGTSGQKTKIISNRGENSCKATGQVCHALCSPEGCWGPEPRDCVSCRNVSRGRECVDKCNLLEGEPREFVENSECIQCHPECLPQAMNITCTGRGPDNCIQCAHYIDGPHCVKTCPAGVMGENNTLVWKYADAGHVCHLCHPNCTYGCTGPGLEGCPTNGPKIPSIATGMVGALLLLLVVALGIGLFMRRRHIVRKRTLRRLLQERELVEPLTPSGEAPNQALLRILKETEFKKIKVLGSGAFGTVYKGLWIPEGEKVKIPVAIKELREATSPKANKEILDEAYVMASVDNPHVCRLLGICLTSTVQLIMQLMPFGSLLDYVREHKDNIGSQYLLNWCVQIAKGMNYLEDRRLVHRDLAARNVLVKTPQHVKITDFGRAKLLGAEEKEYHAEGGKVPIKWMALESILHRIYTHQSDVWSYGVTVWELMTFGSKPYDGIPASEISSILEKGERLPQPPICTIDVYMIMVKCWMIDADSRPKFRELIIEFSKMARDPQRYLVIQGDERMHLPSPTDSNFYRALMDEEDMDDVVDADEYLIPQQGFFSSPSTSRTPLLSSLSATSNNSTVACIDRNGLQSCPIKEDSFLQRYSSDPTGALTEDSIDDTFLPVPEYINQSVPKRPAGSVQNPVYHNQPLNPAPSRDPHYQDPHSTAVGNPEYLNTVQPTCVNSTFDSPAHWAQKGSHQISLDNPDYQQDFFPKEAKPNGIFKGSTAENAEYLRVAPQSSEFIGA
Sequence of Epidermal growth factor receptor [L858R] (P00533 25-1210 L858R limits assumed): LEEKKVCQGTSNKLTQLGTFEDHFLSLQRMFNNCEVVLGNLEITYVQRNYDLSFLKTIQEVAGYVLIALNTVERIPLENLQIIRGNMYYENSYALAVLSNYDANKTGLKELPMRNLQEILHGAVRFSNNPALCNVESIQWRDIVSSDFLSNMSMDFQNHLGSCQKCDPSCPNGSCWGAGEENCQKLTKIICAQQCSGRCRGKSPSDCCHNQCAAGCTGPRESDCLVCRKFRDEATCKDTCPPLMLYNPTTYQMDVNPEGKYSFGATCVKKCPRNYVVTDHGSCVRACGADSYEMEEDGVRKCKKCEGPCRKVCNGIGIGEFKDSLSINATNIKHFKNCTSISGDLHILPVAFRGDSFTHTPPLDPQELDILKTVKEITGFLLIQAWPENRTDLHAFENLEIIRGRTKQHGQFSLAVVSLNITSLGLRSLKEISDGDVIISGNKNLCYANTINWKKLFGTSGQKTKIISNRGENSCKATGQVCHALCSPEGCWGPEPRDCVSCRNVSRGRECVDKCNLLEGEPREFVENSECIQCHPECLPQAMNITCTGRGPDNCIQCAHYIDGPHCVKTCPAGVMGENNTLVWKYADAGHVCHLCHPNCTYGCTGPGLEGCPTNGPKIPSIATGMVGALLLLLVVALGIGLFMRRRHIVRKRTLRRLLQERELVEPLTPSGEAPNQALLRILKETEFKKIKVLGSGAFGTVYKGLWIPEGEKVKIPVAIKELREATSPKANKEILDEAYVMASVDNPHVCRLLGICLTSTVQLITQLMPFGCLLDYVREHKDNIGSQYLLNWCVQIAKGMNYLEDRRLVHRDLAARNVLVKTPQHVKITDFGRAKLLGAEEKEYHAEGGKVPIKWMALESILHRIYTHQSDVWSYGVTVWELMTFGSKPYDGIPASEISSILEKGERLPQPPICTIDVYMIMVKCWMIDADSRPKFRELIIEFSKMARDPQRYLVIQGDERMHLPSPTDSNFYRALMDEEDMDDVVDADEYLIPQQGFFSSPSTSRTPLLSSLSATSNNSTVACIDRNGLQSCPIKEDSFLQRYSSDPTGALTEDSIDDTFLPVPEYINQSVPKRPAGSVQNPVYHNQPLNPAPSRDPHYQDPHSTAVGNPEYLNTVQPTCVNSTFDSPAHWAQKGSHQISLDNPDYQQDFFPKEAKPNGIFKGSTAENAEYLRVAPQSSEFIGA
Sequence of Epidermal growth factor receptor [T790M,L858R] (P00533 25-1210 T790M/L858R limits assumed): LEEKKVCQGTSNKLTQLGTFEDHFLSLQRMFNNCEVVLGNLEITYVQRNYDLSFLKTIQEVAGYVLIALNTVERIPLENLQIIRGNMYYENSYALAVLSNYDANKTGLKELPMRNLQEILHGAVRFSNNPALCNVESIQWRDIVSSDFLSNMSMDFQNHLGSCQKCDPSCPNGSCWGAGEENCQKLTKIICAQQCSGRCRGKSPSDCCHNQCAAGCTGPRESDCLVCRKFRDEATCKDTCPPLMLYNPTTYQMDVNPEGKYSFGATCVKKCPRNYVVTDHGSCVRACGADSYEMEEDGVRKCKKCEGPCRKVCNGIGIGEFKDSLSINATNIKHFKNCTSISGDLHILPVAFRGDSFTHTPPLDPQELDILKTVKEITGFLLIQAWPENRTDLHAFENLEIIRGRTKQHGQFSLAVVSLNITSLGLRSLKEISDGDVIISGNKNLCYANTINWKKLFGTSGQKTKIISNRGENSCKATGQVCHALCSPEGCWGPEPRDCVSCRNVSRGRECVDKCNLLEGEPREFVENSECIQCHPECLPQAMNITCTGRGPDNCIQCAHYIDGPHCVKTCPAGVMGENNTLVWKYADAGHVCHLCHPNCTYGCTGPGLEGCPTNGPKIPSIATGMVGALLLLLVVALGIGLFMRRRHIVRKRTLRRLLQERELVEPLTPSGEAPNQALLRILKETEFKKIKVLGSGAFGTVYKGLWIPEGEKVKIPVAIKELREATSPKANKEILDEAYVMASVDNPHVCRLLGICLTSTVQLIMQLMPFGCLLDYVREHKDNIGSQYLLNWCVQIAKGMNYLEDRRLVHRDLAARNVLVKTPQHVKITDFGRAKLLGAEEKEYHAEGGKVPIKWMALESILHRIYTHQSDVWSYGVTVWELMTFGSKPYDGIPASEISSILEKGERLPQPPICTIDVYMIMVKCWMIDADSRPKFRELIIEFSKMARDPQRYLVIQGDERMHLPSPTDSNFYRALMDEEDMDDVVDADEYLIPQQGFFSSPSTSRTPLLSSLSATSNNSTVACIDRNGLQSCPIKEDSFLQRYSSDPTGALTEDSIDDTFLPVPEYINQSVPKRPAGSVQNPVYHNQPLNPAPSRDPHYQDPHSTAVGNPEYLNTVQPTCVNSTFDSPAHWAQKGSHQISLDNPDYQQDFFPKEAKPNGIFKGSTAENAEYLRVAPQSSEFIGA

Row | IC50 [1] | IC50 [2] | IC50 [3] | IC50 [4] | IC50 [5] | IC50 [6] | IC50 [7] | IC50 [8] | SMILES
1 | 413 nM | 28.5 nM | 132 nM | 10.8 nM | – | – | – | – | Cc1nn(C)c2c1/C=C/c1n[nH]c3ccc(cc13)-c1cnn(C)c1CN(C)C[C@H](C)O2 (single isomer, unassigned) [US20250353864, Example 97]
2 | 0.4 nM | 0.28 nM | – | – | – | – | – | – | CCOc1nn(CCO)c2c1/C=C/c1n[nH]c3ccc(cc13)-c1cnn(C)c1O[C@H](C)[C@H]1CCCN1C2 (single isomer, unassigned) [US20250353864, Example 241]
3 | 381 nM | 4.93 nM | 124 nM | 9.27 nM | – | – | – | – | CCOc1nn(CCO)c2c1/C=C/c1n[nH]c3ccc(cc13)-c1cnn(C)c1OC1CCCN(C2)C1C (stereo not given) [US20250353864, Example 242]

More lines, now with the values behind:

Row | SMILES | IC50 [1] | IC50 [2] | IC50 [3] | IC50 [4] | IC50 [5] | IC50 [6] | IC50 [7] | IC50 [8]
4 | Cc1ccc2c(n1)/C=C/c1n[nH]c3ccc(cc13)-c1cnn(C)c1O[C@@H](C)CCO2 [US20250353864, Example 39] | 1070 nM | 35.3 nM | 222 nM | – | – | – | – | –
5 | Cc1c2c(nn1CCN1CCCC1)OCCOC(C)c1c(cnn1C)-c1ccc3[nH]nc(c3c1)/C=C/2 (stereo not given) [US20250353864, Example 84] | 1080 nM | 28.2 nM | 285 nM | 30.8 nM | – | – | – | –
6 | Cc1nn(C)c2c1/C=C/c1n[nH]c3ccc(cc13)-c1c(C)nn(C)c1OCCN(C)C2 [US20250353864, Example 47] | – | 170 nM | 822 nM | 79.3 nM | 9.92 nM | 48.3 nM | 1000 nM | 2.7 nM
7 | Cc1c2c(nn1CCN1CCCC1)CN(C)C[C@H](C)Oc1c(cnn1C)-c1ccc3[nH]nc(c3c1)/C=C/2 [US20250353864, Example 89] | 64 nM | 0.45 nM | 4.66 nM | 0.06 nM | – | – | – | –
8 | Cc1c2c(nn1[C@H]1CCN(C)C[C@@H]1O)OCCCOc1c(cnn1C)-c1ccc3[nH]nc(c3c1)/C=C/2 (racemic) [US20250353864, Example 83] | 61.5 nM | 5.29 nM | 19 nM | 1.48 nM | – | – | – | –
9 | CCc1nn(C)c2c1/C=C/c1n[nH]c3ccc(cc13)-c1cnn(C)c1OCCCO2 [US20250353864, Example 10] | 973 nM | 42.2 nM | 181 nM | – | – | – | – | –
